Measurements reported in US9994556B2, “Triazole modified coumarin and biphenyl amide-based HSP90 inhibitors” (THE UNIVERSITY OF KANSAS, priority 2014, dated 2018).
Read-outs that look alike come from different tables or passages of the source.

What was measured:
Type in all cases: cell-based
SKBr3 cells = test: MTS/PMS cell viability assay, SKBr3; settings: Homo sapiens, SK-BR-3
Procedure: (§1) a) MTS/PMS Cell Viability Assay (SKBr3 and MCF-7 Cells)
(§2) Cells were maintained in a 1:1 mixture of Advanced DMEM/F12 (Gibco) supplemented with non-essential amino acids, L-glutamine (2 mM), streptomycin (500 μg/mL), penicillin (100 units/mL), and 10% FBS. Cells were grown to confluence in a humidified atmosphere (37° C., 5% CO2), seeded (2000/well, 100 μL) in 96-well plates, and allowed to attach overnight. Compound at varying concentrations in DMSO (1% DMSO final concentration) was added, and cells were returned to the incubator for 72 hr. At 72 hr, the number of viable cells was determined using an MTS/PMS cell proliferation kit (Promega) per the manufacturer's instructions. Cells incubated in 1% DMSO were used at 100% proliferation, and values were adjusted accordingly. IC50 values were calculated from separate experiments performed in triplicate using GraphPad Prism.

MCF-7 cells = test: MTS/PMS cell viability assay, MCF-7; settings: Homo sapiens, MCF7, 72 hr, mean ± standard deviation, read-out: IC50 MCF-7
Procedure: as §1, §2

MDA-MB-468LN cell line = test: Promega CellTiter-Glo (CTG) luminescent assay, MDA-MB-468LN; settings: Homo sapiens, 72 hr, mean ± standard deviation
Procedure: (§3) b) Promega CellTiter-Glo (CTG) Luminescent Assay
(§4) Antiproliferative activities against MDA-MB-468LN, MDA1986 and JMAR cell lines were performed with 384-well white plates with the Promega CellTiter-Glo (CTG) luminescent assay with 72 hr compound treatment. Data analysis was performed using GraphPad Prism. Selected data were further checked with MTS/PMS cell viability assay with 96-well plates, which correlated well with Promega CellTiter-Glo luminescent assay.

MDA1986 cell line = test: Promega CellTiter-Glo (CTG) luminescent assay, MDA1986
Procedure: as §3, §4

JMAR cell line = test: Promega CellTiter-Glo (CTG) luminescent assay, JMAR; settings: 72 hr, mean ± standard deviation
Procedure: as §3, §4

PC3-MM2 cells = test: Sulforhodamine B assay, PC3-MM2; settings: Homo sapiens, PC3MM2, mean ± standard deviation
Procedure: (§5) c) Sulforhodamine B Assay
(§6) The sulforhodamine B assay is used to measure drug-induced cytotoxicity and cell proliferation for large-scale drug-screening applications. Its principle is based on the ability of the protein dye sulforhodamine B to bind electrostatically on pH dependent protein basic amino acid residues of trichloroacetic acid-fixed cells. The aim is to evaluate samples showing selective growth inhibition or cell killing of particular tumor cell lines.
(§7) The SRB assay is performed by treating cells using a 10 point dose-response curve. The cells are fixed with trichloroacetic acid solution and stained with sulforhodamine B dye. The stained cells are then solubilized with 10 mM Tris buffer and read for absorbance at 565 nm.
(§8) Percentage growth is calculated at each of the drug concentration levels using the absorbance raw data.
(§9) Percentage growth inhibition is calculated as: [(Ti−Tz)/(C−Tz)]×100 for concentrations for which Ti≥Tz. [(Ti−Tz)/(Tz)]×100 for concentrations for which Ti<Tz.
(§10) Ti=Absorbance of wells at a given drug concentration level.
(§11) Tz=Absorbance time zero wells
(§12) C=Absorbance of untreated wells (media and cells only)
(§13) After growth inhibition values have been calculated, the data is plotted on Graphpad Prism software. Data is entered and plotted on a sigmoidal dose-response curve using non-linear regression.

LNCaP cells = test: Sulforhodamine B assay, LNCaP; settings: Homo sapiens, mean ± standard deviation
Procedure: as §5, §6, §7, §8, §9, §10, §11, §12, §13

[1] = Table 1 coumarin-based triazoles, 72 hr, mean ± standard deviation, at least two experiments in triplicate, read-out: IC50 SKBr3
[2] = Table 1 coumarin-based triazoles
[3] = Table 1 coumarin-based triazoles, 72 hr, mean ± standard deviation, read-out: IC50 MDA1986
[4] = Table 2 biphenyl triazole analogues, 72 hr, mean ± standard deviation, read-out: IC50 SKBr3
[5] = Table 2 biphenyl triazole analogues
[6] = Table 2 biphenyl triazole analogues, 72 hr, mean ± standard deviation, read-out: IC50 MDA1986

| Compound | IC50 (SKBr3 cells; [1]) [nM] | IC50 (MCF-7 cells; [2]) [nM] | IC50 (MDA-MB-468LN cell line; [2]) [nM] | IC50 (PC3-MM2 cells; [2]) [nM] | IC50 (LNCaP cells; [2]) [nM] | IC50 (SKBr3 cells; read-out: IC50 against SKBr3 cell line) [nM] | IC50 (SKBr3 cells; [4]) [nM] | IC50 (MCF-7 cells; [5]) [nM] | IC50 (MDA-MB-468LN cell line; [5]) [nM] | IC50 (PC3-MM2 cells; [5]) [nM] | IC50 (LNCaP cells; [5]) [nM] | IC50 (MDA1986 cell line; [3]) [nM] | IC50 (JMAR cell line; [2]) [nM] | IC50 (MDA1986 cell line; read-out: IC50 against MDA1986 cell line) [nM] | IC50 (MDA1986 cell line; [6]) [nM] | IC50 (JMAR cell line; [5]) [nM] |
| --- | --- | --- | --- | --- | --- | --- | --- | --- | --- | --- | --- | --- | --- | --- | --- | --- |
| Cc1c(OC2CCN(C)CC2)ccc2cc(NC(=O)c3cn(-c4ccc(Br)cc4)nn3)c(=O)oc12 [4d, 1-(4-Bromophenyl)-N-(8-methyl-7-((1-methylpiperidin-4-yl)oxy)-2-oxo-2H-chromen-3-yl)-1H-1,2,3-triazole-4-carboxamide] | 1380 ± 50 | 5070 ± 1860 | 2800 ± 500 | 3810 ± 4990 | 15200 ± 9190 | – | – | – | – | – | – | 2900 ± 330 | 3600 ± 630 | – | – | – |
| Cc1c(OC2CCN(C)CC2)ccc2cc(NC(=O)c3cn(Cc4ccc(Cl)cc4)nn3)c(=O)oc12 [4g, 1-(4-Chlorobenzyl)-N-(8-methyl-7-((1-methylpiperidin-4-yl)oxy)-2-oxo-2H-chromen-3-yl)-1H-1,2,3-triazole-4-carboxamide] | 1140 ± 190 | 1440 ± 310 | 2200 ± 300 | 3670 ± 1380 | 4650 ± 710 | – | – | – | – | – | – | 1700 ± 520 | 1700 ± 200 | – | – | – |
| Cc1ccc(Cn2cc(C(=O)Nc3cc4ccc(OC5CCN(C)CC5)c(C)c4oc3=O)nn2)cc1 [4i, 1-(4-Methylbenzyl)-N-(8-methyl-7-((1-methylpiperidin-4-yl)oxy)-2-oxo-2H-chromen-3-yl)-1H-1,2,3-triazole-4-carboxamide] | 1210 ± 70 | 1500 ± 190 | 2400 ± 250 | 7320 ± 5440 | 7240 ± 1020 | – | – | – | – | – | – | 1500 ± 200 | 1800 ± 950 | – | – | – |
| COc1ccc(Cn2cc(C(=O)Nc3cc4ccc(OC5CCN(C)CC5)c(C)c4oc3=O)nn2)cc1 [4j, 1-(4-Methoxybenzyl)-N-(8-methyl-7-((1-methylpiperidin-4-yl)oxy)-2-oxo-2H-chromen-3-yl)-1H-1,2,3-triazole-4-carboxamide] | 1310 ± 200 | 1420 ± 140 | 3400 ± 1270 | 7850 ± 420 | > 100000 | – | – | – | – | – | – | 2600 ± 300 | 6700 | – | – | – |
| Cc1c(OC2CCN(C)CC2)ccc2cc(NC(=O)c3cn(Cc4ccccc4Cl)nn3)c(=O)oc12 [4p, 1-(2-Chlorobenzyl)-N-(8-methyl-7-((1-methylpiperidin-4-yl)oxy)-2-oxo-2H-chromen-3-yl)-1H-1,2,3-triazole-4-carboxamide] | 1300 ± 70 | 990 ± 80 | 2100 ± 520 | 6660 ± 5440 | > 100000 | – | – | – | – | – | – | 3200 ± 1370 | 3700 ± 850 | – | – | – |
| Cc1c(OC2CCN(C)CC2)ccc2cc(NC(=O)c3cn(CCCc4ccccc4)nn3)c(=O)oc12 [4s, N-(8-methyl-7-((1-methylpiperidin-4-yl)oxy)-2-oxo-2H-chromen-3-yl)-1-(3-phenylpropyl)-1H-1,2,3-triazole-4-carboxamide] | 1730 ± 50 | 1650 ± 30 | – | – | – | – | – | – | – | – | – | – | – | – | – | – |
| CN1CCC(Oc2ccc(-c3ccc(NC(=O)c4cn(-c5ccccc5)nn4)cc3)cc2)CC1 [5a, N-(4′-((1-methylpiperidin-4-yl)oxy)-[1,1′-biphenyl]-4-yl)-1-phenyl-1H-1,2,3-triazole-4-carboxamide] | – | – | – | – | – | – | 1140 ± 100 | 1440 ± 180 | 830 ± 160 | 4260 ± 5590 | 3890 ± 1090 | – | – | – | 1300 ± 90 | 2200 ± 240 |
| CN1CCC(Oc2ccc(-c3ccc(NC(=O)c4cn(CCc5ccccc5)nn4)cc3)cc2)CC1 [5c, N-(4′-((1-methylpiperidin-4-yl)oxy)-[1,1′-biphenyl]-4-yl)-1l-phenethyl-1H-1,2,3-triazole-4-carboxamide] | – | – | – | – | – | – | 190 ± 20 | 380 ± 100 | 360 ± 40 | 830 ± 340 | 430 ± 220 | – | – | – | 100 ± 230 | 580 ± 460 |

Continued, in another order:

| IC50 (SKBr3 cells; [1]) [nM] | IC50 (MCF-7 cells; [2]) [nM] | IC50 (MDA-MB-468LN cell line; [2]) [nM] | IC50 (PC3-MM2 cells; [2]) [nM] | IC50 (LNCaP cells; [2]) [nM] | IC50 (SKBr3 cells; read-out: IC50 against SKBr3 cell line) [nM] | IC50 (SKBr3 cells; [4]) [nM] | IC50 (MCF-7 cells; [5]) [nM] | IC50 (MDA-MB-468LN cell line; [5]) [nM] | IC50 (PC3-MM2 cells; [5]) [nM] | IC50 (LNCaP cells; [5]) [nM] | Compound | IC50 (MDA1986 cell line; [3]) [nM] | IC50 (JMAR cell line; [2]) [nM] | IC50 (MDA1986 cell line; read-out: IC50 against MDA1986 cell line) [nM] | IC50 (MDA1986 cell line; [6]) [nM] | IC50 (JMAR cell line; [5]) [nM] |
| --- | --- | --- | --- | --- | --- | --- | --- | --- | --- | --- | --- | --- | --- | --- | --- | --- |
| 580 ± 30 | 2040 ± 250 | 810 ± 150 | 2790 ± 490 | 2450 ± 470 | – | – | – | – | – | – | Cc1c(OC2CCN(C)CC2)ccc2cc(NC(=O)c3cn(-c4ccc(Cl)cc4)nn3)c(=O)oc12 [4c, 1-(4-chlorophenyl)-N-(8-methyl-7-((1-methylpiperidin-4-yl)oxy)-2-oxo-2H-chromen-3-yl)-1H-1,2,3-triazole-4-carboxamide] | 180 ± 110 | 430 ± 380 | – | – | – |
| 1080 ± 50 | 1380 ± 70 | 4000 ± 1920 | > 100000 | > 100000 | – | – | – | – | – | – | Cc1ccc(-n2cc(C(=O)Nc3cc4ccc(OC5CCN(C)CC5)c(C)c4oc3=O)nn2)cc1 [4e, 1-(4-methylphenyl)-N-(8-methyl-7-((1-methylpiperidin-4-yl)oxy)-2-oxo-2H-chromen-3-yl)-1H-1,2,3-triazole-4-carboxamide] | 290 | 3640 | – | – | – |
| 730 ± 10 | 1360 ± 80 | 2100 ± 600 | 3800 ± 1420 | 4960 ± 670 | – | – | – | – | – | – | Cc1c(OC2CCN(C)CC2)ccc2cc(NC(=O)c3cn(Cc4ccc(Br)cc4)nn3)c(=O)oc12 [4h, 1-(4-Bromobenzyl)-N-(8-methyl-7-((1-methylpiperidin-4-yl)oxy)-2-oxo-2H-chromen-3-yl)-1H-1,2,3-triazole-4-carboxamide] | 2000 ± 500 | 1600 ± 310 | – | – | – |
| 450 ± 30 | 1220 ± 70 | 740 ± 220 | 2370 | 1840 | – | – | – | – | – | – | Cc1c(OC2CCN(C)CC2)ccc2cc(NC(=O)c3cn(Cc4ccc(C(C)(C)C)cc4)nn3)c(=O)oc12 [4k, 1-(4-tert-Butylbenzyl)-N-(8-methyl-7-((1-methylpiperidin-4-yl)oxy)-2-oxo-2H-chromen-3-yl)-1H-1,2,3-triazole-4-carboxamide] | 340 ± 90 | 580 ± 140 | – | – | – |
| 380 | 640 | 810 ± 230 | 2490 ± 320 | 1280 ± 710 | – | – | – | – | – | – | Cc1c(OC2CCN(C)CC2)ccc2cc(NC(=O)c3cn(Cc4ccc([N+](=O)[O-])cc4)nn3)c(=O)oc12 [4l, 1-(4-Nitrobenzyl)-N-(8-methyl-7-((1-methylpiperidin-4-yl)oxy)-2-oxo-2H-chromen-3-yl)-1H-1,2,3-triazole-4-carboxamide] | 180 ± 220 | 260 ± 340 | – | – | – |
| 1080 ± 10 | 1340 ± 190 | 2600 ± 6120 | 8820 ± 1140 | 3310 | – | – | – | – | – | – | Cc1c(OC2CCN(C)CC2)ccc2cc(NC(=O)c3cn(Cc4ccc(F)cc4)nn3)c(=O)oc12 [4m, 1-(4-Fluorobenzyl)-N-(8-methyl-7-((1-methylpiperidin-4-yl)oxy)-2-oxo-2H-chromen-3-yl)-1H-1,2,3-triazole-4-carboxamide] | 1770 ± 4100 | 2380 ± 5380 | – | – | – |
| 1060 ± 10 | 1680 ± 10 | 1140 ± 1170 | 6000 ± 1130 | 3030 ± 50 | – | – | – | – | – | – | Cc1c(OC2CCN(C)CC2)ccc2cc(NC(=O)c3cn(Cc4cccc(Cl)c4)nn3)c(=O)oc12 [4n, 1-(3-Chlorobenzyl)-N-(8-methyl-7-((1-methylpiperidin-4-yl)oxy)-2-oxo-2H-chromen-3-yl)-1H-1,2,3-triazole-4-carboxamide] | 230 ± 220 | 190 ± 100 | – | – | – |
| 130 ± 10 | 550 ± 10 | 990 ± 100 | 1400 ± 40 | 2360 ± 530 | 130 | – | – | – | – | – | Cc1c(OC2CCN(C)CC2)ccc2cc(NC(=O)c3cn(CCc4ccccc4)nn3)c(=O)oc12 [4r, N-(8-methyl-7-((1-methylpiperidin-4-yl)oxy)-2-oxo-2H-chromen-3-yl)-1-phenethyl-1H-1,2,3-triazole-4-carboxamide] | 110 ± 300 | 740 ± 860 | ~110 | – | – |
